# Laboratory results: ChEMBL document CHEMBL6182882, “Evodiamine-Based Nitroreductase Responsive Theranostic Agents for Treatment of Colon Cancer” (J Med Chem, 2025)
# Activity calls are given as the source filed them. No cut-off for these calls is given here.
# Assays:
# [1] = (§1) Prodrug activation in phosphate buffer saline at pH 7.4 assessed as Escherichia coli nitroreductase mediated 3-fluoro-10-hydroxy-14-methyl-8,13,13b,14-tetrahydroindolo[2',3':3,4]pyrido[2,1-b]quinazolin-5(7H)-one formation by measuring fluorescence emission intensity at 25 uM incubated for 2 hrs in presence of NADH by fluorescence spectrophotometric analysis; settings: isolated protein, pH 7.4, 2 h
# A549 [2] = experiment: Binding affinity to NTR in human A549 cells assessed as increase in fluorescence intensity at 25 uM incubated for 2 hrs under 2 to 10 % hypoxic condition by confocal fluorescence imaging based analysis; assay type: cell-based
# HCT-116 [3] = experiment: Induction of cell cycle arrest in human HCT-116 cells assessed as accumulation of cells at G1 phase at 0.2 uM measured after 24 hrs by flow cytometric analysis (reference value: 48.40 %); assay type: functional
# [4] = Drug localization in Mitochondria of human HCT-116 cells at 25 uM incubated for 2 hrs by Mito-tracker green dye based confocal imaging analysis; assay type: ADME; settings: hct-116, 2 h
# [5] = Drug uptake in male nude mouse tumor xenografted in human HCT-116 cells at 10 mg/kg, […] administered via tail vein and measured at 12 hrs post injection by fluorescence imaging analysis; assay type: ADME, organism-based, Neoplasm; settings: in vivo
# Bacteroides fragilis = experiment: Antibacterial activity against Bacteroides fragilis; assay type: functional
# [6] = Drug localization in Cell membrane of human HCT-116 cells at 25 uM incubated for 2 hrs by Dio- tracker green dye based confocal imaging analysis; assay type: ADME, cell membranes; settings: hct-116, 2 h
# A549 [7] = experiment: Cytotoxicity against human A549 cells assessed as inhibition of cell growth incubated for 72 hrs under hypoxic conditions by CCK-8 assay; assay type: functional, cell-based; settings: A549, 72 h
# [8] = Cytotoxicity against human HUVEC cells assessed as inhibition of cell growth incubated for 72 hrs under normoxic condition by CCK-8 assay; assay type: toxicity, cell-based
# [9] = Metabolic stability in ICR mouse liver microsomes assessed as intrinsic clearance; assay type: ADME, Microsome; settings: read-out: CLH
# [10] = Drug localization in endoplasmic reticulum of human HCT-116 cells at 25 uM incubated for 2 hrs by ER-tracker red dye based confocal imaging analysis; assay type: ADME, subcellular; settings: hct-116, 2 h
# HCT-116 [11] = experiment: Induction of cell cycle arrest in human HCT-116 cells assessed as accumulation of cells at S phase at 1.0 uM measured after 24 hrs by flow cytometric analysis (reference value: 33.15 %); assay type: functional
# [12] = as §1, with “measuring fold increase in” for “measuring”; settings: isolated protein, pH 7.4, 2 h
# HCT-116 [13] = experiment: Cytotoxicity against human HCT-116 cells assessed as inhibition of cell growth incubated for 72 hrs under normoxic conditions by CCK-8 assay; assay type: functional, cell-based; settings: HCT-116, 72 h
# [14] = Metabolic stability in ICR mouse liver microsomes assessed as terminal half life; assay type: ADME, Microsome; settings: read-out: beta t1/2
# [15] = Toxicity in male nude mouse assessed as change in body weight at 10 mg/kg, ip administered twice daily for 14 consecutive days; assay type: organism-based; settings: in vivo
# HCT-116 [16] = experiment: Cytotoxicity against human HCT-116 cells assessed as inhibition of cell growth incubated for 72 hrs under hypoxic conditions by CCK-8 assay; assay type: functional, cell-based; settings: HCT-116, 72 h
# HCT-116 [17] = experiment: Induction of cell cycle arrest in human HCT-116 cells assessed as accumulation of cells at S phase at 0.04 uM measured after 24 hrs by flow cytometric analysis (reference value: 33.15 %); assay type: functional
# HCT-116 [18] = experiment: Induction of cell cycle arrest in human HCT-116 cells assessed as accumulation of cells at G2/M phase at 1.0 uM measured after 24 hrs by flow cytometric analysis (reference value: 18.45 %); assay type: functional
# A549 [19] = experiment: Induction of cell cycle arrest in human A549 cells assessed as accumulation of cells at G2/M phase at 0.2 uM measured after 24 hrs by flow cytometric analysis (reference value: 3.81%); assay type: functional
# HCT-116 [20] = experiment: Induction of cell cycle arrest in human HCT-116 cells assessed as accumulation of cells at S phase at 0.2 uM measured after 24 hrs by flow cytometric analysis (reference value: 33.15 %); assay type: functional
# HCT-116 [21] = experiment: Induction of cell cycle arrest in human HCT-116 cells assessed as accumulation of cells at G2/M phase at 0.04 uM measured after 24 hrs by flow cytometric analysis (reference value: 18.45 %); assay type: functional
# HCT-116 [22] = experiment: Induction of cell cycle arrest in human HCT-116 cells assessed as accumulation of cells at G1 phase at 1.0 uM measured after 24 hrs by flow cytometric analysis (reference value: 48.40 %); assay type: functional
# [23] = as §1, with “incubated for 0.5 to 2 hrs” for “incubated for 2 hrs”, “presence of 1 to 7 microg/ml NTR and NADH by” for “presence of NADH by”; settings: isolated protein, pH 7.4, 25 µM, time 0.5-2 hrs
# HCT-116 [24] = experiment: Binding affinity to NTR in human HCT-116 cells assessed as increase in fluorescence intensity at 25 uM incubated for 2 hrs under 2 to 10 % hypoxic condition by confocal fluorescence imaging based analysis; assay type: cell-based
# [25] = Drug localization in lysosome of human A549 cells at 25 uM incubated for 2 hrs by Lyso-tracker red dye based confocal imaging analysis; assay type: ADME, subcellular; settings: a549, 2 h
# HUVEC = experiment: Binding affinity to NTR in human HUVEC cells assessed as fluorescence intensity at 10 to 100 uM incubated for 2 hrs by confocal fluorescence microscopic analysis; assay type: cell-based; settings: dose 10-100 µM
# A549 [26] = experiment: Binding affinity to NTR in human A549 cells assessed as increase in fluorescence intensity at 10 to 100 uM incubated for 2 hrs by confocal fluorescence microscopic analysis; assay type: cell-based; settings: dose 10-100 µM
# [27] = Drug localization in lysosome of human HCT-116 cells at 25 uM incubated for 2 hrs by Lyso-tracker red dye based confocal imaging analysis; assay type: ADME, subcellular; settings: hct-116, 2 h
# A549 [28] = experiment: Induction of cell cycle arrest in human A549 cells assessed as accumulation of cells at G2/M phase at 0.04 uM measured after 24 hrs by flow cytometric analysis relative to control; assay type: functional
# [29] = Drug localization in nucleus of human HCT-116 cells at 25 uM incubated for 2 hrs by […] dye based confocal imaging analysis; assay type: ADME, subcellular; settings: hct-116, 2 h
# HCT-116 [30] = experiment: Antitumor activity against human HCT-116 cells xenografted in male nude mouse assessed as tumor growth inhibition at 10 mg/kg, ip administered twice daily for 14 consecutive days; assay type: functional; settings: read-out: TGI
# [31] = biological target: T1, DNA topoisomerase 1 (Homo sapiens) (UniProt P11387); experiment: Inhibition of topoisomerase 1 (unknown origin) […] activity using pBR322 DNA as substrate at 125 to 250 uM incubated for 15 mins by ethidium bromide staining based agarose gel electrophoresis; settings: dose 125-250 µM
# T1 sequence (whole entry): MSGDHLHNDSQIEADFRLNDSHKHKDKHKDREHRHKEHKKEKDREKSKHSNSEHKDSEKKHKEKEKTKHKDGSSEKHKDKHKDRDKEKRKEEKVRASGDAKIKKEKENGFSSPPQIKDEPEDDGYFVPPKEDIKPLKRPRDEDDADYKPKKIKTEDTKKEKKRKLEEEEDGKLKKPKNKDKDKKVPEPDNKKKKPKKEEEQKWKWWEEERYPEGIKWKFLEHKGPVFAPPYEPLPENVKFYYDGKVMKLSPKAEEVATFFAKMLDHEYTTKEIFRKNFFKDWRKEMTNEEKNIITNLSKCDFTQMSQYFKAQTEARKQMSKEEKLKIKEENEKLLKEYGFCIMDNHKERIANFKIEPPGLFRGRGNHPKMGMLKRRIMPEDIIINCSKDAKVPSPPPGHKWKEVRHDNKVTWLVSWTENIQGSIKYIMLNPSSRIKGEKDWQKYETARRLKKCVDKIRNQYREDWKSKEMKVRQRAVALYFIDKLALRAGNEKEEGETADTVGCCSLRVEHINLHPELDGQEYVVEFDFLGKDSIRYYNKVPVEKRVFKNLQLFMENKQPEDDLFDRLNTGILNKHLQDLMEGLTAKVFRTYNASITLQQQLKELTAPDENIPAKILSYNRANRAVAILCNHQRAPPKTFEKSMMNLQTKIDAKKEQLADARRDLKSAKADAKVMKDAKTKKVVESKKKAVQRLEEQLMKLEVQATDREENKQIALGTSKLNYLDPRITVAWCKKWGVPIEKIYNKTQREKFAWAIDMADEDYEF
# HCT-116 [32] = experiment: Induction of cell cycle arrest in human HCT-116 cells assessed as accumulation of cells at G2/M phase at 0.2 uM measured after 24 hrs by flow cytometric analysis (reference value: 18.45 %); assay type: functional
# A549 [33] = experiment: Induction of cell cycle arrest in human A549 cells assessed as accumulation of cells at G2/M phase at 1.0 uM measured after 24 hrs by flow cytometric analysis (reference value: 3.81%); assay type: functional
# [34] = Drug uptake in male nude mouse kidney xenografted in human HCT-116 cells at 10 mg/kg, […] administered via tail vein and measured at 12 hrs post injection by fluorescence imaging analysis; assay type: ADME, organism-based; settings: in vivo
# [35] = as §1, with “10” for “25”, “of 1 to 7 microg/ml NTR and” for “of”; settings: isolated protein, pH 7.4, 2 h
# HCT-116 [36] = experiment: Induction of cell cycle arrest in human HCT-116 cells assessed as accumulation of cells at G1 phase at 0.04 uM measured after 24 hrs by flow cytometric analysis (reference value: 48.40 %); assay type: functional
# HCT-116 [37] = experiment: Binding affinity to NTR in human HCT-116 cells assessed as increase in fluorescence intensity at 10 to 100 uM incubated for 2 hrs by confocal fluorescence microscopic analysis; assay type: cell-based; settings: dose 10-100 µM
# HCT-116 [38] = experiment: Induction of apoptosis in human HCT-116 cells assessed as apoptotic cells at 0.04 to 1.0 uM measured after 48 hrs by flow cytometric analysis (reference value: 4.57%); assay type: functional; settings: dose 0.04-1 µM
# A549 [39] = experiment: Induction of apoptosis in human A549 cells assessed as apoptotic cells at 0.04 to 1.0 uM measured after 48 hrs by flow cytometric analysis (reference value: 6.44%); assay type: functional; settings: dose 0.04-1 µM
# A549 [40] = experiment: Cytotoxicity against human A549 cells assessed as inhibition of cell growth incubated for 72 hrs under normoxic conditions by CCK-8 assay; assay type: functional, cell-based; settings: A549, 72 h
# Fusobacterium nucleatum = experiment: Antibacterial activity against Fusobacterium nucleatum; assay type: functional
# HCT-116 [41] = experiment: Antitumor activity against human HCT-116 cells xenografted in male nude mouse assessed as tumor growth inhibition at 0.5 mg/kg, ip administered twice daily for 14 consecutive days; assay type: functional; settings: read-out: TGI
# [42] = Toxicity in male nude mouse assessed as change in body weight at 0.5 mg/kg, ip administered twice daily for 14 consecutive days; assay type: organism-based; settings: in vivo
smiles,measurement,setting,value
CN1c2ccc(F)cc2C(=O)N2CCc3c([nH]c4ccc(OC(=O)OCc5cc6ccc(OCc7ccc([N+](=O)[O-])cc7)cc6oc5=O)cc34)C21 (stereo not drawn),Drug metabolism,[1],metabolite_detected
CN1c2ccc(F)cc2C(=O)N2CCc3c([nH]c4ccc(OC(=O)/C=C/C(=O)OCc5cc6ccc(OCc7ccc([N+](=O)[O-])cc7)cc6oc5=O)cc34)C21 (stereo not drawn),Activity,A549 [2],Active
same,Activity,HCT-116 [3],7.74%
same,Drug uptake,[4],Active
same,Drug uptake,[5],Active
same,MIC50,Bacteroides fragilis,> 64 µg/mL
same,Drug uptake,[6],Active
same,IC50,A549 [7],38 nM
same,IC50 at 72 h,[8],120 nM
same,CLint scaled,[9],9.54 mL/min/kg
same,Drug uptake,[10],Active
same,Activity,HCT-116 [11],2.78%
same,fold change (FC),[12],14
same,IC50,HCT-116 [13],145 nM
same,half-life,[14],572 min
same,Activity,[15],Non-toxic
same,IC50,HCT-116 [16],71 nM
same,Activity,HCT-116 [17],32.22%
same,Activity,HCT-116 [18],96.66%
same,Activity,A549 [19],47.03%
same,Activity,HCT-116 [20],17.36%
same,Activity,HCT-116 [21],24.01%
same,Activity,HCT-116 [22],0.56%
same,Drug metabolism,[23],metabolite_detected
same,Activity,HCT-116 [24],Active
same,Drug uptake,[25],Active
same,Activity,HUVEC,Active; Weak Fluorescence Observed
same,Activity,A549 [26],Active
same,Drug uptake,[27],Active
same,Activity,A549 [28],10.87%
same,Drug uptake,[29],Active
same,inhibition in vivo at 10 mg/kg,HCT-116 [30],76.1%
same,inhibition,[31],Weak_effect
same,Activity,HCT-116 [32],74.9%
same,Activity,A549 [33],59.51%
same,Drug uptake,[34],Active
same,Drug metabolism,[35],metabolite_detected
same,Activity,HCT-116 [36],43.77%
same,Activity,HCT-116 [37],Active; Stronger Fluorescence Intensity Observed
same,Activity,HCT-116 [38],13.04%
same,Activity,A549 [39],18.27%
same,IC50,A549 [40],255 nM
same,Drug metabolism,[1],metabolite_detected
CN1c2ccc(F)cc2C(=O)N2CCc3c([nH]c4ccc(O)cc34)C21 (stereo not drawn),MIC50,Fusobacterium nucleatum,> 64 µg/mL
same,IC50,A549 [7],15 nM
same,IC50 at 72 h,[8],44 nM
same,CLint scaled,[9],555 mL/min/kg
same,half-life,[14],9.83 min
same,IC50,HCT-116 [16],15 nM
CC[C@@]1(O)C(=O)OCc2c1cc1n(c2=O)Cc2cc3c(CN(C)C)c(O)ccc3nc2-1 [TOPOTECAN],inhibition in vivo at 0.5 mg/kg,HCT-116 [41],82.5%
same,Activity,[42],Toxic
CN1c2ccc(F)cc2C(=O)N2CCc3c([nH]c4ccc(OC(=O)/C=C/C(=O)OCc5cc6ccc(OCc7ccccc7)cc6oc5=O)cc34)C21 (stereo not drawn),Drug metabolism,[1],metabolite_notdetected
CN1c2ccc(F)cc2C(=O)N2CCc3c([nH]c4ccc(OC(=O)CCC(=O)OCc5cc6ccc(OCc7ccc([N+](=O)[O-])cc7)cc6oc5=O)cc34)C21 (stereo not drawn),Drug metabolism,[1],metabolite_detected
